Data on three compounds can be found in patent publication US6262241A, “Compound for detecting and modulating RNA activity and gene expression” (Isis Pharmaceuticals, Inc., priority 1995, dated 2001).

One data set deals with nucleases. Particulars: cited from earlier work.
In data set [1] the test system is Y STRAND 3'-GAG CAU GGY' AAG GCC AGG (SEQ ID NO: 7). The format is binding.

Consider poly(2'-chloro-2'-deoxyuridylic acid), for which, in the data set with nucleases, the nuclease resistance result is given as “resistant to various nucleases”.
Regarding `Nc1cc2c(ncn2[C@@H]2O[C@H](CO)[C@@H](O)[C@H]2O)c(=O)[nH]1` [3-deazaguanosine], in data set [1], the “Tm, G-C” value worked out at 59 C; the “delta Tm, G-A” value was -2 C; the “delta Tm, G-Bu” value is given as -7 C; the “delta Tm, G-G” value is “+1 C”. Also, in data set [1], the “delta Tm, G-T” value is reported as -1 C.
In the case of poly(2'-chloro-2'-deoxycytidylic acid), the nuclease resistance entry with nucleases is recorded as “resistant to various nucleases”.
